From patent US20140155420A1, “INHIBITORS OF EYA2” (The Regents of the University of Colorado, a body corporate, priority 2011, published 2014)
“Also recorded” adds a separate entry of the source.

What was measured:
Eya2 ED = target: T1, Eya2 ED (Homo sapiens, UniProt O00167); conditions: no extra Mg2+ added
T1 sequence (O00167 253-538): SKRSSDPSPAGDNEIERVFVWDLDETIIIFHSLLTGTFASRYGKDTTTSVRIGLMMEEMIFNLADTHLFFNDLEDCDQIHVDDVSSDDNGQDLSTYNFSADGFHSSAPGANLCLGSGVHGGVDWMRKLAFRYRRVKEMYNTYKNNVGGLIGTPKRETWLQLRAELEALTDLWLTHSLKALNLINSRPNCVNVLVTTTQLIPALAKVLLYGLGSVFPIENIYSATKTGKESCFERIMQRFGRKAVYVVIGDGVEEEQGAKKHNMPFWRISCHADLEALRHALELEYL
Experimental: In order to provide evidence for the binding between hydrazides with Eya2, thermal shift experiments were performed to evaluate if Eya2 melting temperature (Tm) could be positively shifted in the presence of different concentrations of hydrazides. Compounds were serially diluted in DMSO in 96-well polypropylene plates (Thermo Fisher Scientific). A mixture of 49 μl of Eya2 and SYPRO Orange (5000× stock solution, Invitrogen) were transferred to a 96-well skirted thin-wall PCR plate (Bio-Rad) with a final concentration of 1 μM and 5×, respectively. Compounds prepared in the aforementioned mother plate were subsequently added to the protein-dye mixture, with final concentrations ranging from 0.34 nM to 200 μM (final volume 50 μl). DMSO alone was also transferred within each compound dilution series as a control sample. DMSO concentration was consistent across each dilution series and was maintained at 2%. The plate was sealed with Optical-Quality Sealing Tape (Bio-Rad) and was centrifuged at 1000 rpm for 20 s before heating commenced. Plate heating was performed on an iQ5 real-time PCR detection system (Bio-Rad) from 20 to 95° C. with an increment of 1° C. and a ramping rate of 0.1° C./s. A CCD camera was used to measure SYPRO Orange fluorescence through a filter set corresponding to excitation and emission wavelengths of 490 and 575 nm, respectively. […]

[1] = tested on: Six1/Eya2-mediated transcription; assay: MEF3-promoter luciferase assay in MCF7 cells; format: cell-based; conditions: compound incubated 48 hours
Experimental: MCF7 cells were plated in 24-well plates at 25,000 cells/well. 24 hours later, cells were transfected with 300 ng/well pGL3-6xMEF3 (a promoter-luciferase construct in which the promoter contains 6 well characterized Six1 MEF3 binding sites (Spitz et al., 1998)), 70 ng/well renilla luciferase, 100 ng/well pcDNA3.1 Six1, and 200 ng/well of pcDNA3.1-FLAG-Eya2 using FuGENE 6 (Roche Applied Science) transfection reagent. The following day the media was changed and 24 hours later lysates were prepared and analyzed with the Dual Luciferase Kit (Promega) on a Modulus Microplate (Turner Biosystems). An Eya2 phosphatase-dead mutant (D274N) was also used in place of wild type Eya2 to evaluate the effect of Eya2's phosphatase activity on transcription. To assay the effect of Eya2 phosphatase inhibitors on transcriptional activity, compound was added 24 hours after transfection and incubated for 48 hours before lysates were prepared and analyzed for luciferase activity as described above. All results were normalized to renilla activity to account for transfection efficiency and transcriptional activity was normalized to Eya2 protein expression in the Eya2 D274N rescue experiment. The inhibitory effect of the compounds was normalized to vehicle-treated control and statistical significance was determined by performing a one-way ANOVA with Dunnett's post-test on the natural log transformed normalized transcriptional activity.

[2] = UV-Vis spectra with Mg2+ titration; format: physicochemical; conditions: acetonitrile; for λmax without Mg2+ / λmax with Mg2+: 25 μM compound; for λmax without Mg2+: 0 mM Mg2+
Experimental: Compounds were dissolved in acetonitrile at a final concentration of 25 μM with final Mg^2+ concentration at 0, 0.5, 1, 5, 10, 25, 50, 100 and 200 mM. UV-visible spectra were obtained using an Agilent 8453 UV-Visible Spectrophotometer (Agilent Technologies) in 0.1 cm quartz cuvette at room temperature.
In order to elicit any possible weak association to Mg^2+, the inventors moved on to the organic solvent acetonitrile (Hojo et al., 2002). […] The solutions were prepared such that the absorbance was within the 0-1 range.

[3] = UV-Vis spectra with Na+ titration; format: physicochemical; conditions: acetonitrile
Experimental: In order to elicit any possible weak association to Mg^2+, the inventors moved on to the organic solvent acetonitrile (Hojo et al., 2002). […] The solutions were prepared such that the absorbance was within the 0-1 range. They observed a dose-dependent shift in the maximum absorbance wavelength (λmax), from 322 nm (0 mM Mg^2+) to 334 nm (100 mM Mg^2+) (FIGS. 11B, 11C). The inventors conducted a similar study with Na where the compound concentration was kept at 12.5 μM and the sodium perchlorate concentration ranged from 0 to 25 mM.

Question: For `O=C(O)CN(CCN(CC(=O)O)CC(=O)O)CC(=O)O` [EDTA], which “Effect on ED melting temperature (Tm)” value (Eya2 ED) is on record?
Answer: reduces Tm

Question: For `O=C(N/N=C/c1ccc(Sc2ccccn2)o1)c1ccncc1` [NCGC00241224], which “Effect on Six1/Eya2-mediated transcription from the MEF3-luciferase reporter” value [1] is on record?
Answer: does not significantly affect; also recorded: does not significantly inhibit

Question: For `O=C(N/N=C/c1ccc(Sc2ccccn2)o1)c1cccc(F)c1` [MLS000544460], which “Effect on Six1/Eya2-mediated transcription from the MEF3-luciferase reporter” value [1] is on record?
Answer: inhibit

Question: What about the “Effect on Six1/Eya2-mediated transcription from the MEF3-luciferase reporter” value ([1]; listed as MLS00044460) of the same compound?
Answer: diminish

Question: What about the “Intrinsic affinity for Mg2+” value [2] of the same compound?
Answer: very weak intrinsic affinity

Question: What about the “λmax without Mg2+” value [2] of the same compound?
Answer: 322 nm

Question: What about the “λmax with Mg2+” value ([2]; 100 mM Mg2+) of the same compound?
Answer: 334 nm

Question: What about the “λmax when titrated with Na+” value [3] of the same compound?
Answer: 323 nm

Question: Which results are given for `Cc1ccccc1C(=O)N/N=C/c1ccc(Sc2ccccn2)o1` [MLS000585814]?
Answer: Effect on Six1/Eya2-mediated transcription from the MEF3-luciferase reporter [1]: diminish; also recorded: inhibit; λmax without Mg2+ [2]: 316 nm; λmax with Mg2+ ([2]; 50 mM Mg2+): 327 nm
